We go through two substances from paper PMC8096952, “Similar pharmacokinetics and pharmacodynamics of a new biosimilar and reference insulin aspart in healthy Chinese males” (Scientific Reports, 2021).

Read-outs that look alike come from different tables or passages of the source. Marks after values point to notes of the source that are not given here.

The nature of data set [1]: Pharmacokinetics of insulin aspart (plasma IAsp) during euglycemic clamp study. The class given is in vivo, healthy Chinese males. Conditions: for t1/2: healthy Chinese males, single 0.2 U/kg s.c., fasted, plasma IAsp by UPLC-MS/MS, arithmetic mean (SD), N = 30; for Tmax: sc. The source says:
(§1) There was a phase I, single-site, randomized, single-dose, two-period, crossover, euglycemic clamp study, evaluating the similarity in PK and PD of two IAsp products in healthy subjects (a new IAsp biosimilar RD10046 by HEC Pharm vs. NovoRapid by Novo Nordisk). In this study, subjects were randomly allocated to one of two treatment sequences (Fig. 1), in which they received 0.2 units/kg s.c. doses of two different IAsp products (as listed above) on two occasions.
(§2) Subjects were admitted to the phrase I unit on day-1 of each treatment period. On day 1, subjects received a single dose of the IAsp biosimilar RD10046 or NovoRapid after an overnight fast of at least 10 h, and a euglycemic clamp procedure that lasted up to 10 h postdose was performed. Subjects were discharged when they had had carbohydrates at the end of the euglycemic clamp. An interval of 7–14 days existed between the two doses.
(§3) The euglycemic clamp study was performed after inserting two catheters (an antecubital venous catheter for infusing 20% dextrose and a retrograde venous catheter in the hand heated in a box at 55–65℃ for measuring blood glucose). After collecting the basal blood glucose level [defined as the mean of the glucose measurement of several times (− 60, − 30, − 20, − 10 min) before dosing], the subjects received a 0.2 U/kg dose of NovoRapid or RD10046 by s.c. injection into a lifted abdominal skin-fold. Blood samples were obtained at the bedside for immediate determination of whole blood glucose concentrations and then monitored every 5 min from 0 to 240 min and every 10 min from 240 to 600 min after dosing. During the euglycemic clamp, the GIR was varied as necessary to maintain the blood glucose concentration within approximately ± 10% of the target level (defined as 0.28 mmol/L below the subject’s basal glucose level). The investigator made the GIR adjustment based on glucose measurements and experience. If the GIR fell to zero for at least 30 min, the clamp was discontinued. A 4-mL blood sample was collected at the following points for analysis of C-peptide and IAsp concentration: − 30, 0 (before dosing), 10, 20, 30, 40, 50, 60, 90, 120, 150, 180, 210, 240, 270, 300, 360, 420, 480 and 600 min. The baseline of C-peptide was defined as the mean value of two measurements at − 30 and 0 min.
(§4) Whole blood glucose concentrations were tested with a glucose analyzer (Biosen C_line GP+, Neckar Healthcare. Co. Ltd., Magdeburg, Germany) using an automated glucose oxidase technique. Serum C-peptide levels were analyzed using an ELISA (Cat. No. 80‐CPTHU‐E01.1; ALPCO, Salem, NH), and plasma IAsp concentrations were assessed by means of a validated, ultra-performance liquid chromatography-tandem mass spectrometry (UPLC-MS/MS) method at Covance Laboratories in Shanghai. The ranges of quantification were 20–3000 pmol/L for C-peptide and 0.2–10 ng/mL for IAsp.
The primary endpoint parameters of PK were shown as follows derived from time-profiles of IAsp: (1) maximal concentration of IAsp (Cmax), (2) the AUC of IAsp from 0 to 10 h (AUCIAsp, 0-10h). The time of Cmax (Tmax) and terminal half-life (t1/2) were also recorded. Those parameters mentioned above were calculated by PKsolver (version 2.0)[26]. Log-transformed AUCIAsp,0–10h and Cmax were evaluated with a linear mixed-effects model including subject as a random effect with the period, sequence, and treatment as fixed effects. For each parameter, the difference in the LS means along with the 90% CIs was back-transformed to produce the ratio of geometric means and the CI comparing treatments. The pharmacokinetic similarity was to be concluded if the 90% CIs for both AUCIAsp,0–10h and Cmax were completely contained within the interval of 0.80–1.25.
(§5) Time-related PK/PD parameters were evaluated by a nonparametric approach based on the Hodges-Lehmann method.

Data set [2] deals with healthy Chinese males. Briefly: Euglycemic clamp pharmacodynamics (glucose infusion rate). The class given is in vivo. Particulars: for Tearly,50% (time of half-maximum GIR before GIRmax) / Tlate,50% (time of half-maximum GIR after GIRmax) / Tonset (first time of blood glucose declining to target level, 0.28 mmol/L less than baseline) / tGIRmax (time of maximum glucose infusion rate) / AUCGIR,0–10h (total glucose infusion during the clamp) / GIRmax (maximum glucose infusion rate): healthy Chinese males, single 0.2 U/kg s.c., 10-h euglycemic clamp, N = 29 RD10046, 30 NovoRapid; for AUCGIR,0–10h (total glucose infusion during the clamp) / GIRmax (maximum glucose infusion rate): fasted, LOESS-smoothed GIR.
From the text: as §1, §2, §3, §4
GIR profiles were smoothed by a locally weighted regression technique (LOESS, factor 0.10) using SAS software (version 9.4). The primary glucose-lowing effectiveness endpoints were the following parameters derived from the smoothed GIR profiles during the time interval from 0 to 10 h: (1) maximal GIR (GIRmax), (2) AUC of GIR from 0 to 10 h (AUCGIR, 0–10h). The time-related parameters including the time of GIRmax (tGIRmax), the onset of time (Tonset) (defined as the first time when BG declining at least 0.28 mmol/L from baseline), the time for GIR to rise from 0 to half of GIRmax (Tearly50%), and the time for GIR to decline from GIRmax to half of GIRmax (Tlate50%) were also recorded. A similar analysis was performed for GIRmax and AUCGIR, 0–10h.
as §5

Another data set deals with C-peptide. Kind of data set: Serum C-peptide during euglycemic clamp (endogenous insulin secretion). Conditions: healthy Chinese males, single 0.2 U/kg s.c., 10-h euglycemic clamp, ELISA, mean ± SD, N = 30. The class given is in vivo. The method, then:
The euglycemic clamp study was performed after inserting two catheters (an antecubital venous catheter for infusing 20% dextrose and a retrograde venous catheter in the hand heated in a box at 55–65℃ for measuring blood glucose). After collecting the basal blood glucose level [defined as the mean of the glucose measurement of several times (− 60, − 30, − 20, − 10 min) before dosing], the subjects received a 0.2 U/kg dose of NovoRapid or RD10046 by s.c. injection into a lifted abdominal skin-fold. Blood samples were obtained at the bedside for immediate determination of whole blood glucose concentrations and then monitored every 5 min from 0 to 240 min and every 10 min from 240 to 600 min after dosing. […]
as §4
For orientation: In an ELISA, binding on a coated surface is turned into a signal by an enzyme label.

The test system of data set [3] is healthy Chinese males. Briefly: Safety evaluation (treatment-emergent adverse events). Particulars: all causalities, single 0.2 U/kg s.c., N = 30. Format: in vivo. The source says:
The safety assessments included the vital signs, physical examination, laboratory tests (complete blood cell count, liver and renal function, urinalysis, etc.), 12-lead ECG, injection site reaction, hypoglycemia, and other AEs.

For data set [4] the following is noted: in vivo; cited from earlier work. The source says:
(§6) The maximum observed drug concentration and total drug exposure were higher than those in the previous report, which might ...

Data set [5] has as its system healthy Chinese males. Particulars: previous reports; cited from earlier work.
From the text: as §6

Regarding insulin aspart [NovoRapid], the t1/2 in data set [1] was 38.0 (9.38) min. Besides, the Tmax in data set [1] (in vivo) is given as 50.2 (30.2,75.3) min. Moreover, in the data set on healthy Chinese males [2] (geometric mean (CV %)), the “Tearly,50% (time of half-maximum GIR before GIRmax)” value is on record as 38 (22) min; the “Tlate,50% (time of half-maximum GIR after GIRmax)” value is 226 (17) min; the “Tonset (first time of blood glucose declining to target level, 0.28 mmol/L less than baseline)” value is reported as 15 (23) min; the “tGIRmax (time of maximum glucose infusion rate)” value is 104 (26) min. Further, in the data set with healthy Chinese males [2] (geometric mean (CV %)), the “AUCGIR,0–10h (total glucose infusion during the clamp)” value is on record as 1542 (27) mg/kg and the “GIRmax (maximum glucose infusion rate)” value is recorded as 7.64 (22) mg/kg/min. Further, in the data set on healthy Chinese males [2] (arithmetic mean), the “AUCGIR,0–10h (total glucose infusion during the clamp)” value came out at 1594 mg/kg and the “GIRmax (maximum glucose infusion rate)” value came to 7.84 mg/kg/min. Besides, in the data set on C-peptide, the “C-peptide suppression after injection (reduction from baseline)” value was found to be 30.7 ± 13.3%. Also, the “TEAE Blood bilirubin increased: number of AEs (number of subjects with AEs)” value in the data set on healthy Chinese males [3] is 1 (1). The Tmax in data set [4] is 48 to 70 min. In the data set with healthy Chinese males [5], the GIRmax is 6 to 9 mg/kg/min and the total glucose infusion was 1300 to 1500 mg/kg.

Regarding insulin aspart [RD10046], the t1/2 in data set [1] is recorded as 39.2 (13.1) min. In data set [1] (in vivo), the “AUCIAsp,0–10h, ratio of LS means (RD10046 divided by NovoRapid)” value is listed as 1.02^a; the “AUCIAsp,0–∞, ratio of LS means (RD10046 divided by NovoRapid)” value amounted to 1.02; the “Cmax, ratio of LS means (RD10046 divided by NovoRapid)” value is recorded as 1.01^a; the Tmax was 50.3 (20.4,60.9) min. In the data set on healthy Chinese males [2] (90% CI in next column), the “AUCGIR,0–10h, ratio of LS means (RD10046 divided by NovoRapid)” value was 0.97^a and the “GIRmax, ratio of LS means (RD10046 divided by NovoRapid)” value is reported as 0.98^a. For the same substance, in the data set with healthy Chinese males [2] (Hodges-Lehmann method), the “Tearly,50%, difference between medians (RD10046 - NovoRapid)” value is listed as 0.13^b min; the “Tlate,50%, difference between medians (RD10046 - NovoRapid)” value is on record as 0.39^b min; the “Tonset, difference between medians (RD10046 - NovoRapid)” value was 0^b min; the “tGIRmax, difference between medians (RD10046 - NovoRapid)” value is on record as 15^b min. In the data set on healthy Chinese males [2] (geometric mean (CV %)), the “Tearly,50% (time of half-maximum GIR before GIRmax)” value is 38 (21) min; the “Tlate,50% (time of half-maximum GIR after GIRmax)” value is given as 227 (21) min; the “Tonset (first time of blood glucose declining to target level, 0.28 mmol/L less than baseline)” value is given as 16 (28) min; the “tGIRmax (time of maximum glucose infusion rate)” value is reported as 113 (33) min. Moreover, in the data set on healthy Chinese males [2] (geometric mean (CV %)), the “AUCGIR,0–10h (total glucose infusion during the clamp)” value is 1493 (31) mg/kg and the “GIRmax (maximum glucose infusion rate)” value is reported as 7.44 (23) mg/kg/min. In the data set on healthy Chinese males [2] (arithmetic mean), the “AUCGIR,0–10h (total glucose infusion during the clamp)” value turned out to be 1558 mg/kg and the “GIRmax (maximum glucose infusion rate)” value was determined as 7.65 mg/kg/min. In addition, the “C-peptide suppression after injection (reduction from baseline)” value with C-peptide came out at 30.2 ± 14.7%. Also, in the data set on healthy Chinese males [3], the “TEAE Electrocardiogram high voltage: number of AEs (number of subjects with AEs)” value is on record as 1 (1), the “TEAE Hyperuricemia: number of AEs (number of subjects with AEs)” value is recorded as 1 (1), the “TEAE Induration: number of AEs (number of subjects with AEs)” value is 1 (1) and the “TEAE Pain in extremity: number of AEs (number of subjects with AEs)” value is recorded as 1 (1). In the data set with healthy Chinese males [3], the “TEAE Platelet count increased: number of AEs (number of subjects with AEs)” value is 1 (1) and the “TEAE Refraction disorder: number of AEs (number of subjects with AEs)” value was 1 (1).
